Tests used:
Assay type in all cases: in vivo
Details in all cases: 100 ppm, 1 DP (1 Day Protectant)
[1] = tested on: Blumeria graminis f. sp. hordei; assay: Fungicidal activity: Barley Powdery Mildew (ERYSGH)
Procedure: Technical grades of materials were dissolved in acetone, which were then mixed with nine volumes of water containing 110 ppm Triton X-100. The fungicide solutions were applied onto wheat seedlings using an automated booth sprayer to run-off. All sprayed plants were allowed to air dry prior to further handling. All fungicides were evaluated using the aforementioned method for their activity vs. all target diseases, unless stated otherwise. Wheat leaf blotch and brown rust activity were also evaluated using track spray applications, in which case the fungicides were formulated as EC formulations, containing 0.1% Trycol 5941 in the spray solutions. Wheat plants (variety Yuma) were grown from seed in a greenhouse in 50% mineral soil/50% soil-less Metro mix until the first leaf was fully emerged, with 7-10 seedlings per pot. These plants were inoculated with an aqueous spore suspension of Septoria tritici either prior to or after fungicide treatments. After inoculation the plants were kept in 100% relative humidity (one day in a dark dew chamber followed by two to three days in a lighted dew chamber at 20° C.) to permit spores to germinate and infect the leaf. The plants were then transferred to a greenhouse set at 20° C. for disease to develop. When disease symptoms were fully expressed on the 1st leaves of untreated plants, infection levels were assessed on a scale of 0 to 100 percent disease severity. Percent disease control was calculated using the ratio of disease severity on treated plants relative to untreated plants. Evaluation of Fungicidal Activity: Barley Powdery Mildew (Blumeria graminis f. Sp. hordei; Synonym: Erysiphe graminis f. Sp. hordei; Bayer Code […]) Barley seedlings (variety Harrington) were propagated in soil-less Metro mix, with each pot having 8 to 12 plants, and used in the test when first leaf was fully emerged. Test plants were inoculated by dusting with infected stock plants 24 hr after fungicide treatments. After inoculation the plants were kept in a greenhouse set at 20° C. for disease to develop. Fungicide formulation, application and disease assessment on the sprayed leaves followed the procedures as described in the Example A.

Alternaria solani = assay: Fungicidal activity: Tomato Early Blight (ALTESO)
Procedure: Technical grades of materials were dissolved in acetone, which were then mixed with nine volumes of water containing 110 ppm Triton X-100. The fungicide solutions were applied onto wheat seedlings using an automated booth sprayer to run-off. All sprayed plants were allowed to air dry prior to further handling. All fungicides were evaluated using the aforementioned method for their activity vs. all target diseases, unless stated otherwise. Wheat leaf blotch and brown rust activity were also evaluated using track spray applications, in which case the fungicides were formulated as EC formulations, containing 0.1% Trycol 5941 in the spray solutions. Wheat plants (variety Yuma) were grown from seed in a greenhouse in 50% mineral soil/50% soil-less Metro mix until the first leaf was fully emerged, with 7-10 seedlings per pot. These plants were inoculated with an aqueous spore suspension of Septoria tritici either prior to or after fungicide treatments. After inoculation the plants were kept in 100% relative humidity (one day in a dark dew chamber followed by two to three days in a lighted dew chamber at 20° C.) to permit spores to germinate and infect the leaf. The plants were then transferred to a greenhouse set at 20° C. for disease to develop. When disease symptoms were fully expressed on the 1st leaves of untreated plants, infection levels were assessed on a scale of 0 to 100 percent disease severity. Percent disease control was calculated using the ratio of disease severity on treated plants relative to untreated plants. Evaluation of Fungicidal Activity: Tomato Early Blight (Alternaria solani; Bayer Code […]) Tomato plants (variety Outdoor Girl) were propagated in soil-less Metro mix, with each pot having one plant, and used when 12 to 14 days old. Test plants were inoculated with an aqueous spore suspension of Alternaria solani 24 hr after fungicide treatments. After inoculation the plants were kept in 100% relative humidity (one day in a dark dew chamber followed by two to three days in a lighted dew chamber at 20° C.) to permit spores to germinate and infect the leaf. The plants were then transferred to a growth room at 22° C. for disease to develop. Fungicide formulation, application and disease assessment on the sprayed leaves followed the procedures as described in the Example A.

[2] = tested on: Glomerella lagenarium; Anamorph: Colletotrichum lagenarium; assay: Fungicidal activity: Cucumber Anthracnose (COLLLA)
Procedure: Technical grades of materials were dissolved in acetone, which were then mixed with nine volumes of water containing 110 ppm Triton X-100. The fungicide solutions were applied onto wheat seedlings using an automated booth sprayer to run-off. All sprayed plants were allowed to air dry prior to further handling. All fungicides were evaluated using the aforementioned method for their activity vs. all target diseases, unless stated otherwise. Wheat leaf blotch and brown rust activity were also evaluated using track spray applications, in which case the fungicides were formulated as EC formulations, containing 0.1% Trycol 5941 in the spray solutions. Wheat plants (variety Yuma) were grown from seed in a greenhouse in 50% mineral soil/50% soil-less Metro mix until the first leaf was fully emerged, with 7-10 seedlings per pot. These plants were inoculated with an aqueous spore suspension of Septoria tritici either prior to or after fungicide treatments. After inoculation the plants were kept in 100% relative humidity (one day in a dark dew chamber followed by two to three days in a lighted dew chamber at 20° C.) to permit spores to germinate and infect the leaf. The plants were then transferred to a greenhouse set at 20° C. for disease to develop. When disease symptoms were fully expressed on the 1st leaves of untreated plants, infection levels were assessed on a scale of 0 to 100 percent disease severity. Percent disease control was calculated using the ratio of disease severity on treated plants relative to untreated plants. Evaluation of Fungicidal Activity: Cucumber Anthracnose (Glomerella lagenarium; Anamorph: Colletotrichum lagenarium; Bayer Code COLLLA) Cucumber seedlings (variety Bush Pickle) were propagated in soil-less Metro mix, with each pot having one plant, and used in the test when 12 to 14 days old. Test plants were inoculated with an aqueous spore suspension of Colletotrichum lagenarium 24 hr after fungicide treatments. After inoculation the plants were kept in a dew room at 22° C. with 100% relative humidity for 48 hr to permit spores to germinate and infect the leaf. The plants were then transferred to a growth room set at 22° C. for disease to develop. Fungicide formulation, application and disease assessment on the sprayed leaves followed the procedures as described in the Example A.

Question: For `COc1ccnc(C(=O)N[C@H]2COC[C@H](Cc3ccccc3)[C@@H](Cc3ccccc3)[C@H](C)OC2=O)c1OCOC(C)=O` [Cmpd. 3, ((2-(((3S,7R,8R,9S)-7,8-dibenzyl-9-methyl-2-oxo-1,5-dioxonan-3-yl)carbamoyl)-4-methoxypyridin-3-yl)oxy)methyl acetate], which “ERYSGH disease control rating” value [1] is on record?
Answer: The value was “A (>70)”.

Question: What about the “ALTESO disease control rating” value (Alternaria solani) of the same molecule?
Answer: The value was “A (>70)”.

Question: And the “COLLLA disease control rating” value [2]?
Answer: The value was “A (>70)”.

Question: With `CCCC[C@@H]1[C@@H](Cc2ccccc2)COC[C@H](NC(=O)c2nccc(OC)c2OCOC(=O)C(C)C)C(=O)O[C@H]1C` [compound 1] as the molecule, how does the “ERYSGH disease control rating” value [1] read?
Answer: The value was “A (>70)”.

Question: And the “ALTESO disease control rating” value (Alternaria solani)?
Answer: The value was “A (>70)”.

Question: And the “COLLLA disease control rating” value [2]?
Answer: Its value is “A (>70)”.

Question: Which “ERYSGH disease control rating” value [1] does the source give for `COc1ccnc(C(=O)N[C@H]2COC[C@H](c3ccccc3)[C@@H](c3ccccc3)[C@H](C)OC2=O)c1OCOC(C)=O` [compound 7] here?
Answer: The value was “A (>70)”.

Question: What about the “ALTESO disease control rating” value (Alternaria solani) of the same molecule?
Answer: The value was “A (>70)”.

Question: And the “COLLLA disease control rating” value [2]?
Answer: Its value is “A (>70)”.

Question: Which “ERYSGH disease control rating” value [1] does the source give for `CCCC[C@@H]1[C@@H](Cc2ccc(C(F)(F)F)cc2)COC[C@H](NC(=O)c2nccc(OC)c2OCOC(C)=O)C(=O)O[C@H]1C` [compound 16] here?
Answer: The value was “A (>70)”.

Question: What about the “ALTESO disease control rating” value (Alternaria solani) of the same molecule?
Answer: The value was “A (>70)”.

Question: What about the “COLLLA disease control rating” value [2] of the same molecule?
Answer: The value was “A (>70)”.

Question: Which “ERYSGH disease control rating” value [1] does the source give for `COc1ccnc(C(=O)N[C@H]2COC[C@H](Cc3ccccc3)[C@@H](Cc3ccccc3)[C@H](C)OC2=O)c1OC(C)=O` [compound 27] here?
Answer: The value was “B (≤70)”.

Question: And the “ALTESO disease control rating” value (Alternaria solani)?
Answer: The value was “A (>70)”.

Question: And the “COLLLA disease control rating” value [2]?
Answer: The value was “A (>70)”.

Question: With `COc1ccnc(C(=O)N[C@H]2COC[C@H](CC3CC3)[C@@H](c3ccccc3)[C@H](C)OC2=O)c1OC(C)=O` [compound 100] as the molecule, how does the “ERYSGH disease control rating” value [1] read?
Answer: The value was “A (>70)”.

Question: And the “ALTESO disease control rating” value (Alternaria solani)?
Answer: The value was “A (>70)”.

Question: What about the “COLLLA disease control rating” value [2] of the same molecule?
Answer: Its value is “A (>70)”.

From patent US9955691B2, “Macrocyclic picolinamides as fungicides” (DOW AGROSCIENCES LLC, priority 2014, dated 2018)
